# According to patent publication US20260327239A1, “COMPOUNDS FOR COVALENT INHIBITION OF SHP2” (Purdue Research Foundation, priority 2023, published 2026):
# Entries after “also recorded” stand apart in the source; their conditions may differ. Like-named read-outs stand apart in the source and are kept apart here.
# Assays:
# SHP2 (residues 224-528) = molecular target: T1, SHP2 (residues 224-528) (Homo sapiens, UniProt Q06124); test: Kinetic characterization of SHP2 inactivation (pNPP cleavage progress curves, kobs, kinact/KI); format: biochemical; details: for kinact/KI / KI (inactivation) / kinact: substrate pNPP 3 mM, 100 nM SHP2, pH 7.0, 25° C; for fold decrease in efficacy: comparator not given
# T1 construct: 4× solution of SHP2 (residues 224-528)
# T1 sequence (Q06124 224-528): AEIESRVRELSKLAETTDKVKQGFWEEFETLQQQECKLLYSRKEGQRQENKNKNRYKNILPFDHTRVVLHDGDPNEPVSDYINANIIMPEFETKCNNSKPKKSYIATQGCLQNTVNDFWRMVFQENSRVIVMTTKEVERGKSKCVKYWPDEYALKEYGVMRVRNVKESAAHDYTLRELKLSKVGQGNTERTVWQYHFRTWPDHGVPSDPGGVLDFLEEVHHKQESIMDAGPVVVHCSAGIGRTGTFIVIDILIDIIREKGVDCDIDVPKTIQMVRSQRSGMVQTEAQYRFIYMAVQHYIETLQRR
# Source text: Covalent inhibitors work by forming a covalent bond with a reactive functional group in the target enzyme. Consequently, the kinetics for enzyme inactivation by a covalent inhibitor is not an equilibrium process as with reversible inhibition. The potency of a reversible inhibitor can be measured by its IC50 value. Unlike reversible inhibitors, where inhibition is only concentration-dependent, covalent inhibitors show both time- and concentration-dependent target inhibition (a covalent bond formation is a time-dependent event). If sufficient time is available, covalent inhibitors can completely neutralize the target, rather than go to equilibrium. As a result, the potency and selectivity of a covalent inhibitor cannot be determined by IC50 values; instead, the rate of inactivation of the target (kinact) and the inhibition constant (KI) were determined. The bimolecular rate constant (kinact/KI), was chosen to rank the potency of covalent inhibitors (Ruddraraju et al., 2017, Molecular Biosystems 13(7), 1257-1279).
# PTPs catalyze the dephosphorylation of tyrosine-phosphorylated protein substrates through a conserved mechanism that relies on a catalytic cysteine residue (Zhang, Z.-Y et al., 2003, Prog. Nucleic Acid Research Molecular Biology, 73, 171-220). This provides a mechanistic rationale for the assessment of electrophilic Michael acceptors, such as those synthesized in the present disclosure as potential covalent inhibitors of the SHP2. The enzymatic cleavage of para-nitrophenyl phosphate by SHP2 was measured over time in the presence of 100 μM inhibitor or DMSO, to determine the observed first-order rate constant (kobs). Based on kobs values, compounds were further evaluated in a dose-dependent manner to determine the second-order rate constant (kinact/KI) indicating the overall efficacy of the compounds, which was used to assess the structure-activity relationship (SAR) for the analogs of interest and design additional analogs (see Table 1). […] It has been known that modifications to the electronegativity of substituents proximal to electrophilic centers alter the reactivity of the electrophile.
# The efficacy of covalent inhibitors can be broken down into the initial reversible binding of the compounds (KI), and the rate of covalent bond formation and enzyme inactivation (kinact). These two constants can be used individually, or as a ratio to determine the overall efficacy of the inhibitor's efficacy. To investigate the contribution to reversible binding compound (34) was evaluated, which lacks the carbonyl of the Michael acceptor to prevent the formation of a covalent adduct.
# Inhibitors were evaluated for their ability to inhibit the reaction catalyzed by SHP2 using para-nitrophenyl phosphate (pNPP) as a substrate at pH 7 and 25° C. A 2× solution of inhibitor was diluted into DMG buffer (50 mM 3,3-dimethylglutarate pH 7.0, 1 mM EDTA, ionic strength adjusted to 150 mM using NaCl) was added to a clear flat-bottom 96-well plate (Corning Costar Assay Plate #9017), and serially diluted 1.5-fold, resulting in 100 μL volumes of varying inhibitor concentrations. To this was added a 4× solution of pNPP (12 mM) in DMG buffer. The reaction was initialized by the addition of a 4× solution of SHP2 (residues 224-528), resulting in a final solution of: inhibitor (100-0 μM), pNPP (3 mM), and SHP2 (100 nM). The plate was then monitored for a change in absorbance ab […] using a CLARIOstar^Plus plate reader (BMG Labetch) over the course of an hour. The resulting progress curves for each inhibitor were imported into Graphpad Prism 9 (GraphPad Software, San Diego, CA (USA)), and a baseline correction analysis was completed for fitting purposes. Each curve was fit to the equation Y=V0×(1−e^−kobs*t)/kobs.^[17.22] The kobs values were then plotted against inhibitor concentrations. If the resulting graph was linear, the kinact/KI value was determined by the slope of that line and the 95% confidence interval (95% CI). […]
# SHP2 = molecular target: T2, SHP2 (Homo sapiens, UniProt Q06124); test: Covalent adduct formation on SHP2 by intact protein LC-MS; format: binding; details: 10 μM SHP2, 60 minutes; for % SHP2 Reacted (overall adduct formation): PVSN at 20 μM, compound 37 at 10 μM; for Found Ligand Adduct (mass shift): intact protein LC-MS
# T2 construct: 4× solution of SHP2 (residues 224-528)
# T2 sequence (Q06124 224-528): T1 sequence (Q06124 224-528)
# Experimental: To validate covalent modification of SHP2 by the active compounds, adduct formation on SHP2 was measured by intact protein liquid chromatography-mass spectrometry (LC-MS). With intact protein LC-MS, multiply charged states of the protein species can be deconvoluted to achieve the total mass(es). Compounds were incubated with 10 μM SHP2 for 60 minutes before being quenched with acetonitrile for LC-MS analysis by electrospray ionization (ESI) in positive mode. […] (33), and (42) (FIGS. 3A and 3B).
# To unfold protein and quench protein-ligand reactivity, 10 μL of treated or untreated 10 μM SHP2 was diluted in 40 μL of 80% (v/v) formic acid initially, followed by 150 μL of LC-MS buffer (50/50 water/acetonitrile with 0.1% formic acid). 20-25 pmol per sample was analyzed by LC/MS (Agilent 1260 Infinity II with a ZORBAX Rapid Resolution High Definition 300 Å Stable Bond C3, 2.1×100 mm, 1.8 μm column) attached to an Agilent 6129 quadrupole mass spectrometer in positive ion mode. The column was held at 45° C. Mobile solution A was 0.1% formic acid in water, and mobile phase B was 0.1% formic acid in acetonitrile. The gradient used was hold at 10% B for 5 min, increase linearly to 80% B for 15 min, and then hold at 80% B for 5 min. The mass data were collected at a range of 600-1500 m/z. Raw data were processed using MestReNova. For all samples, the deconvoluted mass was calculated by taking the m/z range of 730-1100 Da, and deconvoluted mass range from 36500-37200 Da. An abundance threshold of 10% and tolerance of 30 ppm was set for deconvolution. Unreacted SHP2's total deconvoluted mass was 36602±10 Da; for each deconvolution, the highest deconvoluted mass intensity was utilized as the mass pivot point to determine and identify reacted SHP2 adducts. To calculate the percent SHP2 reacted, the relative abundance intensity of reacted SHP2 was divided by the total relative abundance intensities of unreacted and reacted SHP2.
# [1] = pH 7, role: inhibitor, read-out: kinact/KI (converted)
SMILES,kinact/KI (SHP2 (residues 224-528); [1]) [M⁻¹ s⁻¹],SHP2 inhibition efficacy (in words) (SHP2 (residues 224-528); role: inhibitor),also measured
C=C1C(=O)[C@@]2(C(=O)N3CCN(C(C)=O)CC3)CC(=O)C[C@@H]1C2 [Compound 26],15.4,able to inhibit the catalytic activity of SHP2,–
C=C1C(=O)[C@@]2(C(=O)N3CCC(F)(F)CC3)CC(=O)C[C@@H]1C2 [Compound 23],36.8,more effective SHP2 inhibitor,"kinact/KI (SHP2 (residues 224-528); role: inhibitor): 2,026.8 M^−1Min^−1"
C=C1C(=O)[C@@]2(C(=O)N3CCCCC3)CC(=O)C[C@@H]1C2 [Compound 19],19.4,–,–
C=C1C(=O)[C@@]2(C(=O)N3CCOCC3)CC(=O)C[C@@H]1C2 [Compound 21],16,–,fold decrease in efficacy (SHP2 (residues 224-528); role: inhibitor): ~2 fold
C=C1CC2(C(=O)N3CCN(c4ccc(Br)cc4)CC3)CC(=O)CC1C2 (stereo not drawn) [Compound 34],–,complete loss of SHP2 inhibition efficacy; also recorded: inactive against SHP2; also recorded: complete loss of activity,–
C=C1C(=O)[C@@]2(C(=O)N3CCCCCC3)CC(=O)C[C@@H]1C2 [Compound 20],22.7,–,–
C=C1C(=O)[C@@]2(C(=O)N3CC4(COC4)C3)CC(=O)C[C@@H]1C2 [Compound 22],12.9,–,fold decrease in efficacy (SHP2 (residues 224-528); role: inhibitor): ~2 fold
C=C1C(=O)[C@@]2(C(=O)N3CCCC3)CC(=O)C[C@@H]1C2 [Compound 17],13.4,–,–
C=C1C(=O)[C@@]2(C(=O)N3CCN(c4ccccc4C#N)CC3)CC(=O)C[C@@H]1C2 [Compound 32],367,–,"fold improvement in efficacy over the unsubstituted piperidine analog (19) (SHP2 (residues 224-528); role: inhibitor, kinact/KI relative to 19): approximately 19 fold; fold increase in efficacy relative to the unsubstituted phenyl ring (SHP2 (residues 224-528); role: inhibitor, kinact/KI relative to unsubstituted phenyl): 9.25 fold"
C=C1C(=O)[C@@]2(C(=O)N3CCN(C(=O)OC(C)(C)C)CC3)CC(=O)C[C@@H]1C2 [Compound 25],28.1,able to inhibit the catalytic activity of SHP2,–
C=C1C(=O)[C@@]2(C(=O)NCCC)CC(=O)C[C@@H]1C2 [Compound 11],14.3,slightly less potent than compound (10),kinact/KI (SHP2 (residues 224-528); role: inhibitor): 865.8 M^−1Min^−1
C=C1C(=O)[C@@]2(C(=O)N3CCN(c4ccccc4)CC3)CC(=O)C[C@@H]1C2 [Compound 30],39.6,small improvement in efficacy,–
C=C1C(=O)[C@@]2(C(=O)N(CC)CC)CC(=O)C[C@@H]1C2 [Compound 12],17.5,more effective than compound (11) and the cyclic matched molecular pair (MMP) compound (17),–

# The next lines start with results.
kinact/KI (SHP2 (residues 224-528); [1]) [M⁻¹ s⁻¹],SMILES,SHP2 inhibition efficacy (in words) (SHP2 (residues 224-528); role: inhibitor),also measured
101,C=C1C(=O)[C@@]2(C(=O)N3CCN(c4ccc(C)cc4)CC3)CC(=O)C[C@@H]1C2 [Compound 38],–,KI (inactivation) (SHP2 (residues 224-528); role: inhibitor): 176 µM; kinact (SHP2 (residues 224-528); role: inhibitor): 0.0172 s⁻¹
291,C=C1C(=O)[C@@]2(C(=O)N3CCN(c4ccc(C(C)(C)C)cc4)CC3)CC(=O)C[C@@H]1C2 [Compound 40],–,–
3.52,"C=CS(=O)(=O)Oc1ccccc1 [PVSN, phenyl vinyl sulfonate, reference compound]",–,% SHP2 Reacted (overall adduct formation) (SHP2): 21%
417,C=C1C(=O)[C@@]2(C(=O)N3CCN(c4ccc(C(F)(F)F)cc4)CC3)CC(=O)C[C@@H]1C2 [Compound 42],–,"fold increase in efficacy over compound 11 (SHP2 (residues 224-528); role: inhibitor, kinact/KI relative to 11): 29 fold; fold increase in efficacy compared to PVSN (SHP2 (residues 224-528); role: inhibitor, kinact/KI relative to PVSN): 119 fold; KI (inactivation) (SHP2 (residues 224-528); role: inhibitor): 47.8 µM; kinact (SHP2 (residues 224-528); role: inhibitor): 0.0199 s⁻¹; Found Ligand Adduct (mass shift) (SHP2): 410 Da; % SHP2 Reacted (overall adduct formation) (SHP2): 43%"
367,C=C1C(=O)[C@@]2(C(=O)N3CCN(c4ccc(Br)cc4)CC3)CC(=O)C[C@@H]1C2 [Compound 33],–,KI (inactivation) (SHP2 (residues 224-528); role: inhibitor): 69.7 µM; kinact (SHP2 (residues 224-528); role: inhibitor): 0.0219 s⁻¹; Found Ligand Adduct (mass shift) (SHP2): 412 Da; % SHP2 Reacted (overall adduct formation) (SHP2): 30%
97.6,C=C1C(=O)[C@@]2(C(=O)N3CCN(c4ccc(F)cc4)CC3)CC(=O)C[C@@H]1C2 [Compound 35],–,KI (inactivation) (SHP2 (residues 224-528); role: inhibitor): 112 µM; kinact (SHP2 (residues 224-528); role: inhibitor): 0.0109 s⁻¹
46.5,C=C1C(=O)[C@@]2(C(=O)N3CCN(c4ccc(OC)cc4)CC3)CC(=O)C[C@@H]1C2 [Compound 39],–,–
220,C=C1C(=O)[C@@]2(C(=O)N3CCN(c4ccc(Cl)cc4)CC3)CC(=O)C[C@@H]1C2 [Compound 36],–,–
311,C=C1C(=O)[C@@]2(C(=O)N3CCN(c4ccc(-c5ccccc5)cc4)CC3)CC(=O)C[C@@H]1C2 [Compound 41],–,KI (inactivation) (SHP2 (residues 224-528); role: inhibitor): 10.2 µM; kinact (SHP2 (residues 224-528); role: inhibitor): 0.00317 s⁻¹
